The values that follow come from patent US4238495A, “1-(4-Cyano-phenoxy)-2-hydroxy-3-[2-(5-1H-tetrazolyl )-chromon-5-yloxy]-propane and salts thereof” (Miles Laboratories, Inc., priority 1976, dated 1980).

The nature of data set [1]: therapeutic index, LD50/ID50 (i.v. lethality over PCA). The conditions noted are these: rat, in vivo, iv. The protocol: (§1) Compounds described in above examples 3 and 4 were evaluated for anti-allergic activity in the rat by the passive cutaneous anaphylaxis test (hereafter PCA), utilizing egg albumin as the antigen.
(§2) In the following table, ID50 is the dose which reduced the diameter of the wheal by 50% when injected intravenously together with the antigen. LD50 is the intravenous dose that caused death in 50% of the test animals. Therapeutic index is the ratio, LD50/ID50. The reference compounds utilized were: disodium chromoglycate (DSCG); 1-(phenoxy)-2-hydroxy-3-[2-(5-1H-tetrazolyl)-chromon-5-yloxy]-propane; 1-(4-chloro-phenoxy)-2-hydroxy-3-[2-(5-1H-tetrazolyl)-chromon-5-yloxy]-propane; 1-(4-hydroxy-phenoxy)-2-hydroxy-3-[2-5-1H-tetrazolyl)-chromon-5-yloxy]-propane; 1-(4-propyl-phenoxy)-2-hydroxy-3-[2-5-1H-tetrazolyl)-chromon-5-yloxy]-propane; and sodium 1-(4-cyano-phenoxy)-2-hydroxy-3-(2-carboxy-chromon-5-yloxy)-propane.

The next data set is described as follows: in vivo. The conditions noted are these: rat.
From the text: as §2

Data set [2] relates to passive cutaneous anaphylaxis (skin wheals, egg albumin antigen). Kind of data set: passive cutaneous anaphylaxis (PCA) test, egg albumin as the antigen, i.v. Type of data set: in vivo. The conditions noted are these: dose that reduced wheal diameter by 50%, injected i.v. together with antigen, rat PCA; for ED50: iv, read-out: ID50 (i.v.). The protocol: as §1
The intensity of such PCA reactions is assessed by measuring the diameters of wheals which develop in the skin of the test animals. Details of the PCA test can be found in the following references: I. Mota, Life Sciences, 1: 465 (1963); and B. Ogilvie, Immunology, 12: 113 (1967).
as §2

For data set [3] the test system is unchanged. Description: therapeutic index, LD50/ID50 (i.v. lethality over PCA). The protocol: as §1, §2
Where [4] appears, read: THERAPEUTIC INDEX, ratio LD50/ID50.
The mark [5] stands for this setting: iv, LD50 (i.v.), i.v. dose that caused death in 50% of test animals.

For orientation: LD50 means the dose expected to kill half of the subjects tested. `N#Cc1ccc(OCC(O)COc2cccc3oc(C(=O)O)cc(=O)c23)cc1.[Na]` (stereo not drawn): the selectivity ratio in data set [1] turned out to be 3170. For the same compound, in the data set “in vivo” (iv, LD50 (i.v.)), the median lethal dose (LD50) came to 2380 µmol/kg.
For `CCCc1ccc(OCC(O)COc2cccc3oc(-c4nnn[nH]4)cc(=O)c23)cc1` (stereo not drawn) [Augstein C3 H7], the ED50 in data set [2] was greater than 25 µmol/kg. In data set [1] (setting [4]), the selectivity ratio was greater than 19.7. In the data set “in vivo” (setting [5]), this compound returned a 50% lethal dose (LD50) greater than 493 µmol/kg.
On to `O=c1cc(-c2nnn[nH]2)oc2cccc(OCC(O)COc3ccc(Cl)cc3)c12` (stereo not drawn) [Augstein Cl, 1-(4-chloro-phenoxy)-2-hydroxy-3-[2-(5-1H-tetrazolyl)-chromon-5-yloxy]-propane], for which the ED50 in data set [2] is 1.8 µmol/kg. Moreover, in data set [1], the selectivity ratio was greater than 1. Also, in the data set “in vivo” (in vivo), the LD50 was greater than 1.8 µmol/kg.
As for `O=c1cc(-c2nnn[nH]2)oc2cccc(OCC(O)COc3ccccc3)c12` (stereo not drawn) [Augstein H, 1-(phenoxy)-2-hydroxy-3-[2-(5-1H-tetrazolyl)-chromon-5-yloxy]-propane], the ED50 in data set [2] is 2.25 µmol/kg. In data set [1] (setting [4]), the selectivity ratio was greater than 467. Further, the LD50 in the data set “in vivo” (setting [5]) is greater than 1050 µmol/kg.
For the compound `O=c1cc(-c2nnn[nH]2)oc2cccc(OCC(O)COc3ccc(O)cc3)c12` (stereo not drawn) [Augstein OH], the ED50 in data set [2] came out at 0.675 µmol/kg. For the same compound, in data set [1] (setting [4]), the selectivity ratio was in the range of 1870 to 7480. In the data set “in vivo” (setting [5]), this compound yielded an LD50 of 1260 to 4950 µmol/kg.
For the compound `O=C(O)c1cc(=O)c2c(OCC(O)COc3cccc4oc(C(=O)O)cc(=O)c34)cccc2o1` [DSCG, disodium chromoglycate], the ED50 in data set [2] turned out to be 1.7 µmol/kg. Moreover, in data set [1] (setting [4]), the selectivity ratio turned out to be 1150. In the data set “in vivo” (setting [5]), this compound yielded a 50% lethal dose (LD50) of 1950 µmol/kg.
For `N#Cc1ccc(OCC(O)COc2cccc3oc(-c4nnn[nH]4)cc(=O)c23)cc1` (stereo not drawn) [Ex. 3, 1-(4-CYANO-PHENOXY)-2-HYDROXY-3-[2-(5-1H-TETRAZOLYL)CHROMON-5-YLOXY]-PROPANE], in data set [2], the ED50 came to 0.075 µmol/kg. Besides, in data set [3] (rat, in vivo), the “therapeutic index, times greater than the nearest conger disclosed in Warren” value is “about 5 times”. In addition, in data set [3] (versus DSCG), the “therapeutic index, times greater than DSCG” value is reported as “about 15 times”. In addition, in data set [1] (setting [4]), the selectivity ratio was greater than 15800. The LD50 in “in vivo” (setting [5]) was greater than 1180 µmol/kg.
In the case of `N#Cc1ccc(OCC(O)COc2cccc3oc(-c4nnn[nH]4)cc(=O)c23)cc1` (stereo not drawn) [compound 4, SODIUM 1-(4-CYANOPHENOXY)-2-HYDROXY-3-[2-(5-1H-TETRAZOLYL)CHROMON-5-YLOXY]-PROPANE], in data set [2], the “ID50 (i.v.)” value was 0.075 µmol/kg. For the same compound, the “therapeutic index compared with prior art compounds” value in data set [3] (versus any of the prior art compounds) was “still more superior than any of the prior art compounds”.
